Source: US20240041830A1, “CIRCULATING BIOMARKERS OF RESPONSE TO PD-1/PD-L1 BLOCKADE AND GSK-3 INHIBITION” (Brown University, priority 2022, published 2024)

Columns and labels:
[1] = system: GFP+ SW480 colorectal cancer cells; assay: immune cell-killing co-culture assay (Example 1); type: cell-based, human
Method: A panel of human colorectal cell lines was chosen to provide a varied mutational background (TP53, KRAS, BRAF, TRK, APC, PIK3CA). Cells were treated with elraglusib at doses up to 50 μM for seventy-two hours to determine IC10, IC30, IC50, and IC70. Cytokine, chemokine, and growth factor levels were analyzed in the tumor cell culture supernatants after treatment at IC10, IC30, IC50, and IC70 for forty-eight hours using a Luminex 200 multiplexing instrument. Co-culture experiments were conducted with GFP+ SW480 colorectal cancer cells and either NK-92 natural killer cells or TALL-104 T cells at various effector/target ratios in a 48-well plate, in the presence or absence of elraglusib.

HT29 = assay: CellTiter Glo cell viability; type: cell-based; conditions: Homo sapiens, HT-29, treatment up to 50 μM for seventy-two hours
Method: (§1) Measurement of cell viability. Cells were seeded at a density of 3×10^3 cells per well in a 96-well plate (Greiner Bio-One, Monroe, NC, USA). Cell viability was assessed using the CellTiter Glo assay (Promega, Madison, WI, USA). Cells were mixed with 25 μL of CellTiter-Glo reagents in 100 μL of culture volume, and bioluminescence imaging was measured using the Xenogen IVIS imager (Caliper Life Sciences, Waltham, MA). The percent of cell viability was determined by normalizing the luminescence signal to control wells. Dose-response curves were generated, and the half-maximal inhibitory concentration (IC50) was calculated using Graph-Pad Prism (RRID: SCR_002798) version 9.2.0. For IC50 generation, concentrations were log-transformed, and data were then normalized to control, and a log (inhibitor) versus response (three parameters) test was used. A panel of human colorectal cell lines was chosen to provide a varied mutational background (TP53, KRAS, BRAF, TRK, APC, PIK3CA). Cells were treated with elraglusib at doses up to 50 μM for seventy-two hours to determine IC10, IC30, IC50, and IC70. Cytokine, chemokine, and growth factor levels were analyzed in the tumor cell culture supernatants after treatment at IC10, IC30, IC50, and IC70 for forty-eight hours using a Luminex 200 multiplexing instrument. Co-culture experiments were conducted with GFP+ SW480 colorectal cancer cells and either NK-92 natural killer cells or TALL-104 T cells at various effector/target ratios in a 48-well plate, in the presence or absence of elraglusib. The inventors performed cell titer glo analysis to determine IC doses after treatment up to 50 μM for seventy-two hours. See TABLE below of IC50 values for the three cell lines.

KM12C = assay: CellTiter Glo cell viability; type: cell-based; conditions: Homo sapiens, treatment up to 50 μM for seventy-two hours
Method: as §1

HCT116 = assay: CellTiter Glo cell viability; type: cell-based; conditions: Homo sapiens, HCT-116, treatment up to 50 μM for seventy-two hours
Method: as §1

TALL-104 = assay: Western blot analysis; type: cell-based, human; conditions: as treatment duration increased (0-72 hours)
Method: Western blot analysis. Cells were plated in a 6-well plate and incubated overnight before the spent media was replaced with drugged media. Drug treatment lasted for indicated durations. Protein was extracted using radioimmunoprecipitation (RIPA) assay buffer (Cat #R0278, Sigma-Aldrich, St. Louis, MO, USA) containing cOmplete™, Mini, EDTA-free Protease Inhibitor Cocktail (Cat #4693159001, Roche, Basel, Switzerland) from sub-confluent cells. Denaturing sample buffer was added, samples were boiled at 95° C. for ten minutes, and an equal amount of protein lysate was electrophoresed through NuPAGE™ 4 to 12%, bis-Tris, 1.5 mm, Mini Protein Gels (Invitrogen, Waltham, MA, USA) then transferred to PVDF membranes. The PVDF membrane was blocked with 5% non-fat milk (Sigma-Aldrich, St. Louis, MO, USA) in 1× TTBS. Primary antibodies were incubated with the transferred PVDF membrane in blocking buffer at 4° C. overnight. […] The signal was detected using Pierce™ ECL Western Blotting Substrate (Cat #32106, Thermo Scientific, Waltham, MA, USA) and a Syngene Imaging System (RRID: SCR_015770).
Elraglusib enhances immune cell effector function. the inventors next analyzed immune cell lines (TALL-104, NK-92) using western blot analysis.

MSS cell line CT-26 = assay: syngeneic murine colon carcinoma BALB/c model, survival and tumor response; type: in vivo, mouse
Method: In vivo studies. […] Once tumor volume reached at least 100 mm^3, mice were randomly assigned to one of seven groups (12 mice/group): Control (isotype), elraglusib, elraglusib+Isotype, anti-PD-1, anti-PD-L1, elraglusib+anti-PD-1, and elraglusib+anti-PD-L1. All treatments were delivered by IP injection using the following dosing schedule: Isotype (70 mg/kg, twice a week), elraglusib (70 mg/kg, twice a week), anti-PD-1 (10 mg/kg, twice a week), anti-PD-L1 (10 mg/kg, twice a week). Treatment dosing was determined based on previous studies of elraglusib and anti-PD-1/anti-PD-L1. […] The treatment continued until mice developed signs of discomfort from excessive tumor growth. Mice were weighed once a week to monitor signs of drug toxicity. The length (L) and width (W) of the masses were measured three times per week with a digital caliper, and the tumor volume was calculated by applying the formula: 0.5LW2 Collection of whole blood and serum was performed by cardiac puncture and sent to Antech Diagnostics GLP (Morrisville, NC, USA) for blood cell count and chemistry tests, or in-house cytokine profiling. Tumors and organs were dissected and harvested for analysis by immunohistochemistry and flow cytometry.
In a syngeneic murine colon carcinoma BALB/c model using microsatellite stable cell line CT-26, the inventors compared isotype, elraglusib (70 mg/kg 2×/week), αPD-1 (10 mg/kg 2×/week), αPD-L1 (10 mg/kg 2×/week), elraglusib+αPD-1, and elraglusib+αPD-L1 treatment groups.
The inventors evaluated the potential for elraglusib to increase the efficacy of immune checkpoint blockade and utilized a syngeneic murine colon carcinoma BALB/c murine model using a MSS cell line CT-26 (FIG. 4A). Mice were randomly assigned to one of seven groups: isotype (N=12), elraglusib (N=12), elraglusib+isotype (N=12), anti-PD-1 (N=12), anti-PD-L1 (N=12), elraglusib+anti-PD-1 (N=12), and elraglusib+ anti-PD-L1 (N=12).

NK-92 = assay: Western blot analysis; type: cell-based, human
Method: Western blot analysis. Cells were plated in a 6-well plate and incubated overnight before the spent media was replaced with drugged media. Drug treatment lasted for indicated durations. Protein was extracted using radioimmunoprecipitation (RIPA) assay buffer (Cat #R0278, Sigma-Aldrich, St. Louis, MO, USA) containing cOmplete™, Mini, EDTA-free Protease Inhibitor Cocktail (Cat #4693159001, Roche, Basel, Switzerland) from sub-confluent cells. Denaturing sample buffer was added, samples were boiled at 95° C. for ten minutes, and an equal amount of protein lysate was electrophoresed through NuPAGE™ 4 to 12%, bis-Tris, 1.5 mm, Mini Protein Gels (Invitrogen, Waltham, MA, USA) then transferred to PVDF membranes. The PVDF membrane was blocked with 5% non-fat milk (Sigma-Aldrich, St. Louis, MO, USA) in 1× TTBS. Primary antibodies were incubated with the transferred PVDF membrane in blocking buffer at 4° C. overnight. Secondary antibodies included Goat anti-Rabbit IgG (H+L) Secondary Antibody, HRP (Cat #31460, Invitrogen, Waltham, MA, USA), and Goat anti-Mouse IgG (H+L) Secondary Antibody, HRP (Cat #31430, Invitrogen, Waltham, MA, USA). The signal was detected using Pierce™ ECL Western Blotting Substrate (Cat #32106, Thermo Scientific, Waltham, MA, USA) and a Syngene Imaging System (RRID: SCR_015770).
Because of the differential impact of elraglusib on tumor and immune cells that the inventors observed via Western blot, the inventors compared the levels of another survival protein Mcl-1 in NK-92 natural killer cells.

[2] = vs controls without drug treatment
[3] = immune cells, cell line not given

Compound: Cn1cc(C2=C(c3coc4ccc(F)cc34)C(=O)NC2=O)c2cc3c(cc21)OCO3 [elraglusib]
- cell-killing after pre-treatment of the target tumor cells ([1]; pre-treatment of tumor cells, but not effector immune cells): bolstered cell-killing
- T cell (TALL-104) killing of colorectal cancer cells [1, 2]: significant increase
- natural killer (NK-92) cell killing of colorectal cancer cells [1, 2]: significant increase
- IC50 (HT29): 410 nM
- IC50 (KM12C): 200 nM
- IC50 (HCT116): 370 nM
- Bcl-2 expression (TALL-104): did not notice significant changes
- NF-κB expression (TALL-104): did not notice significant changes
- survival compared to the control (MSS cell line CT-26; N=12 per group): statistically significant improved survival
- hazard ratio for death (HR) (MSS cell line CT-26; compared to isotype control group): 0.12
- median overall survival (MSS cell line CT-26; elraglusib 70 mg/kg 2×/week, αPD-1/αPD-L1 10 mg/kg 2×/week, isotype control group 16 d): 19 days
- NF-κB-inducing kinase (NIK) expression (NK-92; [3]): increases
- Survivin expression (NK-92; [3]): increases
- Mcl-1 protein expression (NK-92; through the 72-hour endpoint): did not observe a significant decrease
